The text below walks through data of patent US12473594B2, “Chemical tagging-based method for modified nucleoside sequencing, enrichment, and measurement” (PEKING UNIVERSITY, priority 2019, dated 2025).

This data set can be described thus: Half-life of DTT-6-A and hm^6A in aqueous solutions with different pH values. Type of data set: physicochemical. Particulars: aqueous solution, neutral environment. As to the method: In order to study whether the stability of product (DTT-6-A) produced by the reaction of hm^6A and DTT was improved compared with hm^6A, half-life of DTT-6-A in aqueous solutions with different pH values was measured.

As for `OCNc1ncnc2c1ncn2[C@@H]1O[C@H](CO)[C@@H](O)[C@H]1O` [hm^6A, N^6-hydroxymethyl adenine nucleoside], the half-life (commonly how long it takes for the measured level to halve) is recorded as 2 h.
